From US7763607B2, “Pharmaceutical compositions comprising CBx cannabinoid receptor modulators and potassium channel modulators” (Solvay Pharmaceuticals GmbH, priority 2006, dated 2010)
Where two headings read alike, the source gives them in different places.

Experiments:
[1] = tested on: rat perifused pancreatic islets; experiment: KATP opening effects through insulin secretion in rat perifused pancreatic islets; type: cell-based; settings: insulin secretion at 11 mM glucose; for % Inhibition 0-30: 0-30 minutes; for % Inhibition 30-60: 30-60 minutes
Experimental: The animals were maintained on a 12 h light-dark cycle (lights on 06.00-18.00 h) with free access to standard rodent diet (B&K Universal Ltd standard rat and mouse diet (BK 001P), Beekay Feeds, B&K Universal Ltd, Hull, East Riding of Yorkshire) and tap water. The rats were conditioned to this environment for at least one week before experimentation.
Experimental procedures: After the rats were sacrificed, the branch of the bile duct leading to the liver and the duodenal end of the duct in the pancreas were clamped and the pancreas distended by injection of ice-cold 0.9 mg/ml collagenase solution into the bile duct. […] Following incubation, 10 ml of cold buffer was added and the suspension shaken vigorously by hand for 1 min. The islets were allowed to settle for 5 min on ice and washed three times using ice-cold buffer. Well formed and good sized islets from 3 rats were hand-picked (under a low power microscope) and pooled and a final selection of islet transferred to the perifusion apparatus.
Two experiments were performed in parallel in two identical, independent sets of perifusion apparatus each consisting of sufficient number of chambers. Each chamber was loaded with 20 hand-picked islets. Islets were perifused for an initial 30 min period in media containing 4 mM glucose. Perifusate was then collected at 2 min intervals for the remainder of the experiment. […] Perifusate fractions were stored at −75° C. until required for insulin assay. Insulin content of fractions were assayed using a 96-well ELISA assay (Mercodia). Initial insulin assays were performed in triplicate on three pooled fractions from each chamber.
Data were initially expressed as a simple mean of the three experiments for insulin secretion (pg/islet/min) and multiple t-tests (against the corresponding vehicle time period) used to determine potential significant effects of treatments. Alternatively, data were also calculated as a % vehicle effect for each experimental day.

rat SUR2 = rat SUR2 (Rattus norvegicus, UniProt Q63563); experiment: In vitro binding affinity to rodent KATP channels: SUR2 (COS cell membranes); settings: rat SUR2 transiently expressed in COS cells; isoform (2A/2B) not given
Experimental: Similar to SUR1 (see above) competitive binding experiments were performed to characterize the affinity of the test compounds for the binding sites for sulfonylureas and KCOs on rat SUR2A. The affinity for the KCO site on SUR2A was assessed by displacement of [^3H]P1075 (see Schwanstecher et al., 1998; Dörschner H. et al. Mol. Pharmacol. 55 (1999) 1060-1066 (Dörschner et al., 1999)). The affinity of [^3H]glibenclamide for the […] SUR2 isoforms, however, is too weak to allow direct detection of binding using filtration assays. Therefore, two strategies can be used to detect binding to the sulfonylurea site on SUR2A. First, binding can be detected indirectly through allosteric displacement of [^3H]P1075 (Dörschner et al., 1999). Second, a mutated SUR2A (SUR2AY1205S, see above) with increased affinity for [^3H]glibenclamide allowing direct displacement of this tracer can be used.
Membranes from COS-cells transiently expressing rat SUR2A were incubated in the presence of the radioligands with increasing concentrations of test compounds as described above. […] For each test compound […] displacement curves were measured (displacement of [^3H]P1075 from the rat isoform of the wild type receptor and displacement of [^3H]glibenclamide from the rat isoform of SUR2AY1205S). Per curve 9-15 distinct concentrations were tested covering the relevant range. […]

hamster SUR1 = target: T1, hamster SUR1 (Cricetus cricetus, UniProt Q09427); experiment: biochemical; type: binding
T1 construct: expressed in transfected cells; host or cells: COS-1 cells (transient, pcDNA vector), membranes
Experimental: Competitive binding experiments were performed to characterize the affinity of the test compounds for the binding sites for sulfonylureas and KATP channel openers (KCOs) on hamster SUR1. To assess the affinity for the sulfonylurea site membranes from COS-cells transiently expressing hamster SUR1 were incubated in the presence of [^3H]glibenclamide with increasing concentrations of test compounds. […] Per curve 9-15 distinct concentrations were tested covering the relevant range. All measurements were repeated at least 5 times in independent experiments.
[^3H]glibenclamide (specific activity 51 Ci mmol^−1 was obtained from NEN (Dreieich, Germany). If suitable, stock solutions were prepared in dimethylsulfoxide with a final solvent concentration in the media below 1%.
SUR- or Kir6.x isoforms were used either subcloned in the pcDNA (hamster SUR1, mouse Kir6.2) or pCMV vector (rat SUR2A, SUR2B).
Rodent SUR-isoforms and KATP channels were transiently expressed in COS-1 cells as described in the literature. […]
The inhibition constant (Ki value) of the test substances was calculated from the respective IC50 value and was stated as the negative logarithmic value thereof (pKi).

[2] = tested on: glucose-stimulated insulin release; experiment: Inhibition of glucose-stimulated insulin release (potency comparison in text); settings: relative to diazoxide

Chain of rat SUR2 (Q63563 1-1503 Y1205S limits assumed, form open): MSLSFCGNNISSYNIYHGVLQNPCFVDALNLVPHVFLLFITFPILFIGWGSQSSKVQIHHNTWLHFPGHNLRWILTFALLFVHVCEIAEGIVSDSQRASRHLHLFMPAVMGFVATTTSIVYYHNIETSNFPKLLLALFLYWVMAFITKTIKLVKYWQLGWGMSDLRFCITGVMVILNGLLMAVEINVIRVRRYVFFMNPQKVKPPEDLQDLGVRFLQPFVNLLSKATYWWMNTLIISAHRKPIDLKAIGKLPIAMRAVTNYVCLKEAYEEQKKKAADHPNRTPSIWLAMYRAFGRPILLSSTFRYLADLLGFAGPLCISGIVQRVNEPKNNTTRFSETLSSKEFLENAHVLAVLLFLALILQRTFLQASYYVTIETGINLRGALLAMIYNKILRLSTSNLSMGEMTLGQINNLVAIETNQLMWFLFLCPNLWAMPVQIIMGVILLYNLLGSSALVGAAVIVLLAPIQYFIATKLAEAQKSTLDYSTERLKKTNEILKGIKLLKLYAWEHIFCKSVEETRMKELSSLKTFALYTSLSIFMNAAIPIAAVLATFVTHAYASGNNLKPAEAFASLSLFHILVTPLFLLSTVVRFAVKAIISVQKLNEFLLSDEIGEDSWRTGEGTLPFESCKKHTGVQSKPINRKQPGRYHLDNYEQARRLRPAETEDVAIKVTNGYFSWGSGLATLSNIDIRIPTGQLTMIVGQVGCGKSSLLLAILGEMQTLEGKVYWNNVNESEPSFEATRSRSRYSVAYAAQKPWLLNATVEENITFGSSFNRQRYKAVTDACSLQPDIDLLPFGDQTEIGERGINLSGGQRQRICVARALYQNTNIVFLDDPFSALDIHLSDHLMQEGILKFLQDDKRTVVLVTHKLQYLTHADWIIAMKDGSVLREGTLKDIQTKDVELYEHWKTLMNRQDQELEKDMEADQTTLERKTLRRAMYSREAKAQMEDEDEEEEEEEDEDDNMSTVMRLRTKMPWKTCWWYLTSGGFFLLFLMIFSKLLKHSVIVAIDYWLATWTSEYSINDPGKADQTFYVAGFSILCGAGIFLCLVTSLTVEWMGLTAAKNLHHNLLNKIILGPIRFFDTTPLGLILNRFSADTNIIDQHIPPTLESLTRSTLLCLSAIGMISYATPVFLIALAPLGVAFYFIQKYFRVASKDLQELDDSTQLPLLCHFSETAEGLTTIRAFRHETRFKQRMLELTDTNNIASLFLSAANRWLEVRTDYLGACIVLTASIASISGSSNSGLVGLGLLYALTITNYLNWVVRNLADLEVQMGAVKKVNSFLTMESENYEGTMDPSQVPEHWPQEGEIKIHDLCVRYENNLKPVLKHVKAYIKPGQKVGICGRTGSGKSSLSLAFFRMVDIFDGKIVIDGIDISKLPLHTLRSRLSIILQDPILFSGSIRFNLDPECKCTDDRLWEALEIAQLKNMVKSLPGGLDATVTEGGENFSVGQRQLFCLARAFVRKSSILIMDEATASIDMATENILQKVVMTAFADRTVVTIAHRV
T1 sequence (Q09427 whole entry): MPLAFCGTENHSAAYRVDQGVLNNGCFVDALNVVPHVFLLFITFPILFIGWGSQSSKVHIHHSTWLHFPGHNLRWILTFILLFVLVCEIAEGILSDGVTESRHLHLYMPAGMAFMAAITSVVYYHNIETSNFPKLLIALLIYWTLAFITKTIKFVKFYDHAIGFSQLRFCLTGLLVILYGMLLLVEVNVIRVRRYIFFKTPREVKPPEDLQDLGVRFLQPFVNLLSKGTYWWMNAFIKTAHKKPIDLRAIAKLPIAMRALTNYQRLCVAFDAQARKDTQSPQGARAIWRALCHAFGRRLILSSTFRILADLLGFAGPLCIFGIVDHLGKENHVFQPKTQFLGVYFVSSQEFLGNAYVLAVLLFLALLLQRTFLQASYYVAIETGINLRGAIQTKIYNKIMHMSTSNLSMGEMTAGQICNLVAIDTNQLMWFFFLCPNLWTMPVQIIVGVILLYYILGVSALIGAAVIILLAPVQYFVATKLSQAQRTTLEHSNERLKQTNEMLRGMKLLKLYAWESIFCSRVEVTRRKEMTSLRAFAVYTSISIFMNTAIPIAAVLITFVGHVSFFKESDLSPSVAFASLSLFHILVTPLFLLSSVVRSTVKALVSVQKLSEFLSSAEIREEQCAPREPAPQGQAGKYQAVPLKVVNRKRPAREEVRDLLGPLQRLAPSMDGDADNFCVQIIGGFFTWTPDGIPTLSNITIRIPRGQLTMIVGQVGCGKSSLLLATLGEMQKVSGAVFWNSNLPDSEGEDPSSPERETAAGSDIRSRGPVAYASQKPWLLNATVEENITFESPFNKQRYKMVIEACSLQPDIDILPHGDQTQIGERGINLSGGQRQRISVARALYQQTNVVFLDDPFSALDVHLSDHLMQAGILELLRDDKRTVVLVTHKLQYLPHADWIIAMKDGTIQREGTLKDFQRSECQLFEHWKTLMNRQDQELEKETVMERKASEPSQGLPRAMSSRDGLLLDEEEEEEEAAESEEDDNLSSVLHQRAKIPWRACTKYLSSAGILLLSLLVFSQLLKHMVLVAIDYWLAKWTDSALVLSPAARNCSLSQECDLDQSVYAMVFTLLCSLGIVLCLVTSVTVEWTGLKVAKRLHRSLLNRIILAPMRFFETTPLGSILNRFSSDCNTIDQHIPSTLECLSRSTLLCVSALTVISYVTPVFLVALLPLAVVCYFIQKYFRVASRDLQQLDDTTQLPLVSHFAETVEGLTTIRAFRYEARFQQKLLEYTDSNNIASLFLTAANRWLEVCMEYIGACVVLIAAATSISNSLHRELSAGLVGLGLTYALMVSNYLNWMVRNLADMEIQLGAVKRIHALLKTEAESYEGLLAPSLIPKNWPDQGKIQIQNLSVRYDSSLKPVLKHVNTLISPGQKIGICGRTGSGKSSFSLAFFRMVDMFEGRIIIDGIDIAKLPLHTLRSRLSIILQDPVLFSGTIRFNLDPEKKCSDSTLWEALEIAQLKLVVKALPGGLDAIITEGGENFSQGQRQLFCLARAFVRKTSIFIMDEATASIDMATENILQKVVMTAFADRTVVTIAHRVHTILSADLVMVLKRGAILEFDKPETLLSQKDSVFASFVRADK

`CON/C(=N\S(=O)(=O)c1ccc(Cl)cc1)N1C[C@H](c2cccc(F)c2)C(c2ccc(Cl)cc2)=N1` (stereo in doubt) [4-Chloro-N-{[3-(4-chloro-phenyl)-4-(3-fluoro-phenyl)-4,5-dihydro-pyrazol-1-yl]-methoxyamino-methylene}-benzenesulfonamide] was tested, and the “% Inhibition 0-30” value [1] was 90% and the “% Inhibition 30-60” value [1] was 95%.
With `CCc1c(C(=O)NN2CCCCC2)nc(-c2ccccc2Cl)n1-c1ccc(Cl)cc1` [1-(4-Chloro-phenyl)-2-(2-chloro-phenyl)-5-ethyl-1H-imidazole-4-carboxylic acid piperidin-1-ylamide, reference compound] the “% Inhibition 0-30” value [1] was 59% and the “% Inhibition 30-60” value [1] was 45%.
In the case of `CSc1c(C(=O)NN2CCCCC2)nc(-c2ccccc2Cl)n1-c1ccc(Cl)cc1` [1-(4-Chloro-phenyl)-2-(2-chloro-phenyl)-5-methylsulfanyl-1H-imidazole-4-carboxylic acid piperidin-1-ylamide], the “% Inhibition 0-30” value [1] is reported as 56% and the “% Inhibition 30-60” value [1] is reported as 36%.
In the case of `CCCCC/C=C\C/C=C\C/C=C\C/C=C\CCCC(=O)OC(CO)CO` [2-AG, Icosa-5,8,11,14-tetraenoic acid 2-hydroxy-1-hydroxymethyl-ethyl ester], the “Affinity to SUR 2” value (rat SUR2) is reported as 5.5.
Molecule `CC1=NS(=O)(=O)c2cc(Cl)ccc2N1` [Diazoxide, diazoxide] has a Ki (hamster SUR1; example in text on SUR binding, subunit not stated, read-out: pKi (converted)) of 158 µM.
`CCCC(C)(C)c1ccc2c(c1)OC(C)(C)[C@@H]1CC=C(C)C[C@@H]21` [JW133, 3-(1,1-dimethyl-butyl)-6,6,9-trimethyl-6a,7,10,10a-tetrahydro-6H-benzo[c]chromene] was tested, and the Ki (hamster SUR1; hamster SUR1 transiently expressed in COS cells, read-out: Affinity to SUR 1 (converted)) was 1.26 µM and the “Affinity to SUR 2” value (rat SUR2) was 3.6.
In the case of `CN/C(=N\S(=O)(=O)N1CCOCC1)N1CC(c2ccccc2)C(c2ccc(Cl)cc2)=N1` (centres unmarked) [Mopholine-4-sulfonic acid [3-(4-chloro-phenyl)-4-phenyl-4,5-dihydro-pyrazol-1-yl]-methylamino-methyleneamide], the “% Inhibition 0-30” value [1] is reported as 83% and the “% Inhibition 30-60” value [1] is reported as 91%.
For `CN/C(=N\S(=O)(=O)N(C)C)N1CC(c2cccc(F)c2)C(c2ccc(Cl)cc2)=N1` (centres unmarked) [N-{[3-(4-Chloro-phenyl)-4-(3-fluoro-phenyl)-4,5-dihydro-pyrazol-1-yl]-methylamino-methylene}-N,N-dimethyl-sulfonamide], the “% Inhibition 0-30” value [1] was 72% and the “% Inhibition 30-60” value [1] was 77%.
`CN/C(=N\S(=O)(=O)c1ccc(C(F)(F)F)cc1)N1CC(c2cccnc2)C(c2ccc(Cl)cc2)=N1` (centres unmarked) [N-{[3-(4-Chloro-phenyl)-4-pyridin-3-yl-4,5-dihydro-pyrazol-1-yl]-methylamino-methylene}-4-trifluoromethyl-benzenesulfonamide] was tested, and the “% Inhibition 0-30” value [1] was 58% and the “% Inhibition 30-60” value [1] was 31%.
`CC1(NC2=Nc3cc(Cl)sc3S(=O)(=O)N2)CC1` [NN-414] was tested, and the “times more potent than diazoxide to inhibit glucose-stimulated insulin release” value [2] was “more than 100 times”.
`CNC(=NS(=O)(=O)N1CCCCC1)C1=NN(c2ccc(Cl)cc2)C(c2ccccc2)C1` (centres unmarked) [Piperdine-1-sulfonic acid [1-(4-chloro-phenyl)-5-phenyl-4,5-dihydro-1H-pyrazol-3-yl]-methylamino-methyleneamide] was tested, and the “% Inhibition 0-30” value [1] was 84% and the “% Inhibition 30-60” value [1] was 47%.
In the case of `CN(C)CCNC(=NS(=O)(=O)N1CCCCC1)N1CC(c2ccccc2)C(c2ccc(Cl)cc2)=N1` (centres unmarked) [Piperidin-1-sulfonic acid [3-(4-chloro-phenyl)-4-phenyl-4,5-dihydro-pyrazol-1-yl]-(2-dimethylamino-ethyl-amino)-methyleneamide], the “% Inhibition 0-30” value [1] is reported as 71% and the “% Inhibition 30-60” value [1] is reported as 64%.
`Cc1c(C(=O)NN2CCCCC2)nn(-c2ccc(Cl)cc2Cl)c1-c1ccc(Cl)cc1` [Rimonabant, 5-(4-Chloro-phenyl)-1-(2,4-dichloro-phenyl)-4-methyl-1H-pyrazole-3-carboxylic acid piperidin-1-ylamide, reference compound] was tested, and the “% Inhibition 0-30” value [1] was 22% and the “% Inhibition 30-60” value [1] was 18%.
